According to patent publication US20250353819A1, “ARYL HYDANTOIN COMPOUNDS AND METHODS OF USE” (priority 2022, published 2025):
Several values for one entry are separate records, joined by “and”; a condition that tells them apart may be missing. Identical values can stand only once. Like-named read-outs stand apart in the source and are kept apart here.

Experiments:
[1] = molecular target: CYP 3A4 (Homo sapiens (Human), UniProt P08684); test: CYP inhibition in human liver microsomes, 3A4
[2] = Kinetic solubility (nephelometry); type: physicochemical; details: aqueous buffer, kinetic from dmso stock; kinetic solubility, pH 6.5 phosphate buffer; read-out: Sol6.5
Experimental: Kinetic Solubility. Compounds in DMSO (10 mg/mL) were diluted into either pH 6.5 phosphate buffer or 0.01 M HCl (approx. pH 2.0) with the final DMSO concentration being 1%. Samples were then analysed via nephelometry to determine a solubility range (Bevan and Lloyd, 2000).

[3] = molecular target: CYP 2D6 (Homo sapiens (Human), UniProt P10635); test: CYP inhibition in human liver microsomes, 2D6
CYP 2D6, sequence (P10635 whole entry): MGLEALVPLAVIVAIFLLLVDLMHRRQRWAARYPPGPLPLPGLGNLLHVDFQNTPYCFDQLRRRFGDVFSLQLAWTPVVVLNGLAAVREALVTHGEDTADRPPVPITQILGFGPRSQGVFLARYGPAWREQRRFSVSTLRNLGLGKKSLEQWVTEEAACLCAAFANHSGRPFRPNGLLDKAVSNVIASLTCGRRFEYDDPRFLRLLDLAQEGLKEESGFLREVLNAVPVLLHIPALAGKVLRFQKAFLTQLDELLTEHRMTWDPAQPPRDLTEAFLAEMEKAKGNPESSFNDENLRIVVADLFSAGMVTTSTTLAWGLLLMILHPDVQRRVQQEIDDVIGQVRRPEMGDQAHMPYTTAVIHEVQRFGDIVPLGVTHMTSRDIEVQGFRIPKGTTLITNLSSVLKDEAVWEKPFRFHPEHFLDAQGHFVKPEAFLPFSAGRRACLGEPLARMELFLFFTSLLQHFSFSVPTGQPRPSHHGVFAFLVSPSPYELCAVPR

[4] = Plasma protein binding, rat plasma; type: in vitro ADME; details: read-out: % bound (converted)
[5] = Whole blood-to-plasma ratio, mouse
[6] = Pharmacokinetics in male Sprague Dawley rats; type: in vivo, rat; details: for Cmax: read-out: Plasma Cmax; for half-life: plasma
Experimental: IV and oral formulations were prepared using the same method. On the day of dosing the solid compound was dissolved in DMSO prior to addition of a saline solution (0.9% w/v). The samples were then mixed using vortexing producing colourless solutions. The IV formulation was filtered through a 0.22 μm syringe filter prior to dosing and the oral formulation was dosed without filtration.
Samples of arterial blood were collected up to 168 h post-dose. Urine samples were not collected as animals were housed in bedded cages. Arterial blood was collected directly into borosilicate vials (at 4° C.) containing heparin as anticoagulant. Once collected, blood samples were centrifuged, supernatant plasma was removed and stored frozen (−80° C.) until analysis by LC-MS. A summary of the bioanalytical method and assay validation details is included in Tables 14 and 15.
Plasma concentration versus time data were analysed using non-compartmental methods (PKSolver Version 2.0). Standard calculations for each pharmacokinetic parameter are listed below.

[7] = Whole blood-to-plasma ratio, rat; type: in vitro ADME
Experimental: As part of the assessment of the IV pharmacokinetics, an additional blood sample was collected from each rat at 1 h post dose for the purposes of determining the whole blood-to-plasma (B/P) ratio. Arterial blood was collected into tubes containing heparin. The haematocrit was determined via centrifugation (13000×g for 4 min using a Clemets® Microhematocrit centrifuge and Safecap® Plain Self-sealing Mylar Wrapped capillary tubes), and values ranged from 41% to 42%. Each blood aliquot ([…]) was collected and matrix matched with an equivalent volume of blank plasma. The remainder of the blood sample was centrifuged and […] plasma aliquot was collected and matrix matched with an equivalent volume of blank blood. Samples were frozen on dry ice and stored at −80° C. until analysis by LC-MS.

[8] = Stability in mouse cryopreserved hepatocytes; type: in vitro ADME
[9] = molecular target: CYP 1A2 (Homo sapiens (Human), UniProt P05177); test: CYP inhibition in human liver microsomes, 1A2; type: in vitro ADME
CYP 1A2, sequence (P05177 whole entry): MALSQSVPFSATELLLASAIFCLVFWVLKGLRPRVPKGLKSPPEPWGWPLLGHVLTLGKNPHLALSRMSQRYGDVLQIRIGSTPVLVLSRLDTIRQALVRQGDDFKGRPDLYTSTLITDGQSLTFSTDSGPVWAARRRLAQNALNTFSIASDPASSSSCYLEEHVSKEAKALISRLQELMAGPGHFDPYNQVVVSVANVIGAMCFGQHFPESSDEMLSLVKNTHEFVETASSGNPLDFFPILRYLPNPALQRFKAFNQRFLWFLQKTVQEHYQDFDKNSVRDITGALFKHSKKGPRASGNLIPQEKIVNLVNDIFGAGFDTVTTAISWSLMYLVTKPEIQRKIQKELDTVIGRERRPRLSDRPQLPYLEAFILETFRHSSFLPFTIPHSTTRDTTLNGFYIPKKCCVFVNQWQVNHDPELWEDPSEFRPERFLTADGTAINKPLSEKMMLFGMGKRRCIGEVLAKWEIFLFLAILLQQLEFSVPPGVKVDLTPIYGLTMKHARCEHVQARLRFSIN

[10] = system: S. mansoni; test: Antischistosomal screen in S. mansoni-infected mice; type: in vivo, Schistosoma mansoni; details: Schistosoma mansoni, single oral dose, mouse model
Source text: Antischistosomal Screen. […] As described by Lombardo et al. (2019), cercariae of S. mansoni were obtained from infected Biomphalaria glabrata. By way of example, NMRI mice were infected subcutaneously with approximately 100 S. mansoni cercariae. […] Untreated mice (n=8) served as controls. At 21 d post-treatment, animals were killed by the CO2 method and dissected. Worms were removed by picking, then sexed and counted.

[11] = rats, IV 1 mg/kg, individual rats
[12] = rats, PO 1 mg/kg, individual rats

CYP 3A4, sequence (P08684 whole entry): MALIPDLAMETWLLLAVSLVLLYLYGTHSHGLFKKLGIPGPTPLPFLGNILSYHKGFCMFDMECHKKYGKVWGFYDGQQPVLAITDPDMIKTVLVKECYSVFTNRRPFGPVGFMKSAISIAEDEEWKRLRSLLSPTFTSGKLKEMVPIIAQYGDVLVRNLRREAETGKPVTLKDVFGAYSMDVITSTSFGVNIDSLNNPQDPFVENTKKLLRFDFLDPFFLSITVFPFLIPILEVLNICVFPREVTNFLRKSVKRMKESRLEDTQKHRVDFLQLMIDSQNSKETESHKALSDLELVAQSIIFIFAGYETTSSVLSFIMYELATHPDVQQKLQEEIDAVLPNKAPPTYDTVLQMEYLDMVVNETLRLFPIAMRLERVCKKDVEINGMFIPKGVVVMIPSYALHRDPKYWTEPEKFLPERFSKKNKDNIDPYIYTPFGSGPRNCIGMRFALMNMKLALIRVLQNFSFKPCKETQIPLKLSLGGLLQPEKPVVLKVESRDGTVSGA

CC1(C)NC(=O)N(c2ccc(F)c(C(C)(F)F)c2)C1=O [Compound IC, 3-(3-(1,1-difluoroethyl)-4-fluorophenyl)-5,5-dimethylimidazolidine-2,4-dione]
IC50 [1]: > 20 µM
solubility kinetic [2]: > 100 µg/mL
IC50 [3]: > 20 µM
fraction unbound [4]: 0.38
B:P [5]: 0.95
Plasma Concentration ([6]; IV 1 mg/kg, 0.17 h, individual rats): 1292 ng/mL and 1300 ng/mL and 908 ng/mL
Plasma Concentration ([6]; IV 1 mg/kg, 0.17 h, mean): 1167 ng/mL
Plasma Concentration ([6]; IV 1 mg/kg, 1.17 h, individual rats): 728 ng/mL and 549 ng/mL and 529 ng/mL
Plasma Concentration ([6]; IV 1 mg/kg, 1.17 h, mean): 602 ng/mL
Plasma Concentration ([6]; IV 1 mg/kg, 2.17 h, individual rats): 701 ng/mL and 669 ng/mL and 469 ng/mL
Plasma Concentration ([6]; IV 1 mg/kg, 2.17 h, mean): 613 ng/mL
Plasma Concentration ([6]; IV 1 mg/kg, 4.17 h, individual rats): 640 ng/mL and 662 ng/mL and 420 ng/mL
Plasma Concentration ([6]; IV 1 mg/kg, 4.17 h, mean): 574 ng/mL
Plasma Concentration ([6]; IV 1 mg/kg, 7.17 h, individual rats): 569 ng/mL and 641 ng/mL and 493 ng/mL
Plasma Concentration ([6]; IV 1 mg/kg, 7.17 h, mean): 568 ng/mL
Plasma Concentration ([6]; IV 1 mg/kg, 12.17 h, individual rats): 545 ng/mL and 473 ng/mL and 480 ng/mL
Plasma Concentration ([6]; IV 1 mg/kg, 12.17 h, mean): 499 ng/mL
Plasma Concentration ([6]; IV 1 mg/kg, 24.17 h, individual rats): 340 ng/mL and 403 ng/mL and 268 ng/mL
Plasma Concentration ([6]; IV 1 mg/kg, 24.17 h, mean): 337 ng/mL
Plasma Concentration ([6]; IV 1 mg/kg, 36.17 h, individual rats): 215 ng/mL and 266 ng/mL and 216 ng/mL
Plasma Concentration ([6]; IV 1 mg/kg, 36.17 h, mean): 232 ng/mL
Plasma Concentration ([6]; IV 1 mg/kg, 48.17 h, individual rats): 125 ng/mL and 170 ng/mL and 97 ng/mL
Plasma Concentration ([6]; IV 1 mg/kg, 48.17 h, mean): 130 ng/mL
Plasma Concentration ([6]; IV 1 mg/kg, 72.17 h, individual rats): 46.8 ng/mL and 62.2 ng/mL and 33.5 ng/mL
Plasma Concentration ([6]; IV 1 mg/kg, 72.17 h, mean): 47.5 ng/mL
Plasma Concentration ([6]; IV 1 mg/kg, 96.17 h, individual rats): 11.5 ng/mL and 28.1 ng/mL and 13.6 ng/mL
Plasma Concentration ([6]; IV 1 mg/kg, 96.17 h, mean): 17.7 ng/mL
Plasma Concentration ([6]; IV 1 mg/kg, 120.17 h, individual rats): 3.1 ng/mL and 7.0 ng/mL and 2.6 ng/mL
Plasma Concentration ([6]; IV 1 mg/kg, 120.17 h, mean): 4.2 ng/mL
Plasma Concentration ([6]; IV 1 mg/kg, 144.17 h, individual rats): 3.0 ng/mL
Plasma Concentration ([6]; IV 1 mg/kg, 144.17 h, mean): 3.0 ng/mL
clearance ([6]; male, Sprague Dawley, rat, in vivo, iv, 1 mg/kg, rats, IV 1 mg/kg, individual rats, read-out: Blood CL): 0.664 mL/min/kg
Vd ([6]; male, Sprague Dawley, rat, in vivo, iv, 1 mg/kg, rats, IV 1 mg/kg, individual rats, read-out: Blood Vss): 0.948 L/kg
AUC ([6]; male, Sprague Dawley, rat, in vivo, iv, 1 mg/kg, rats, IV 1 mg/kg, individual rats, read-out: Plasma AUCIV): 20900 ng·h/mL
clearance ([6]; male, Sprague Dawley, rat, in vivo, iv, 1 mg/kg, rats, IV 1 mg/kg, individual rats, read-out: Plasma CL): 0.797 mL/min/kg
Vd ([6]; male, Sprague Dawley, rat, in vivo, iv, 1 mg/kg, rats, IV 1 mg/kg, individual rats, read-out: Plasma Vss): 1.14 L/kg
AUC ([6]; male, Sprague Dawley, rat, in vivo, iv, 1 mg/kg, rats, IV 1 mg/kg, mean (n = 3), read-out: Plasma AUCIV): 20600 ng·h/mL
clearance ([6]; male, Sprague Dawley, rat, in vivo, iv, 1 mg/kg, rats, IV 1 mg/kg, mean (n = 3), read-out: Plasma CL): 0.825 mL/min/kg
Vd ([6]; male, Sprague Dawley, rat, in vivo, iv, 1 mg/kg, rats, IV 1 mg/kg, mean (n = 3), read-out: Plasma Vss): 1.25 L/kg
clearance ([6]; male, Sprague Dawley, rat, in vivo, iv, 1 mg/kg, rats, IV 1 mg/kg, mean, read-out: Blood CL): 0.687 mL/min/kg
Vd ([6]; male, Sprague Dawley, rat, in vivo, iv, 1 mg/kg, rats, IV 1 mg/kg, mean, read-out: Blood Vss): 1.04 L/kg
AUC ([6]; male, Sprague Dawley, rat, in vivo, po, 1 mg/kg, rats, PO 1 mg/kg, individual rats, read-out: Plasma AUCoral): 23300 ng·h/mL
Cmax ([6]; male, Sprague Dawley, rat, in vivo, po, 1 mg/kg, rats, PO 1 mg/kg, individual rats): 614 ng/mL
AUC ([6]; male, Sprague Dawley, rat, in vivo, po, 1 mg/kg, rats, PO 1 mg/kg, mean (n = 3), read-out: Plasma AUCoral): 20400 ng·h/mL
Cmax ([6]; male, Sprague Dawley, rat, in vivo, po, 1 mg/kg, rats, PO 1 mg/kg, mean (n = 3)): 572 ng/mL
Tmax ([6]; male, Sprague Dawley, rat, in vivo, po, 1 mg/kg, rats, PO 1 mg/kg, mean (n = 3), read-out: Tmax): 6.7 h
half-life ([6]; male, Sprague Dawley, rat, iv, 1 mg/kg, rats, IV 1 mg/kg, individual rats, read-out: Apparent t1/2 (converted)): 13 h
half-life ([6]; male, Sprague Dawley, rat, iv, 1 mg/kg, rats, IV 1 mg/kg, mean (n = 3), read-out: Apparent t1/2 (converted)): 15 h
half-life ([6]; male, Sprague Dawley, rat, other: IV and oral, 1 mg/kg, rats, following IV and oral administration 1 mg/kg, read-out: apparent half-life): 13 to 19 h
half-life ([6]; male, Sprague Dawley, rat, po, 1 mg/kg, rats, PO 1 mg/kg, individual rats, read-out: Apparent t1/2 (converted)): 16 h
half-life ([6]; male, Sprague Dawley, rat, po, 1 mg/kg, rats, PO 1 mg/kg, mean (n = 3), read-out: Apparent t1/2 (converted)): 16 h
Plasma Concentration ([6]; oral 1 mg/kg, 1.00 h, individual rats): 614 ng/mL and 430 ng/mL and 184 ng/mL
Plasma Concentration ([6]; oral 1 mg/kg, 1.00 h, mean): 409 ng/mL
Plasma Concentration ([6]; oral 1 mg/kg, 2.00 h, individual rats): 612 ng/mL and 506 ng/mL and 427 ng/mL
Plasma Concentration ([6]; oral 1 mg/kg, 2.00 h, mean): 515 ng/mL
Plasma Concentration ([6]; oral 1 mg/kg, 4.00 h, individual rats): 545 ng/mL and 477 ng/mL and 474 ng/mL
Plasma Concentration ([6]; oral 1 mg/kg, 4.00 h, mean): 499 ng/mL
Plasma Concentration ([6]; oral 1 mg/kg, 7.00 h, individual rats): 612 ng/mL and 559 ng/mL and 455 ng/mL
Plasma Concentration ([6]; oral 1 mg/kg, 7.00 h, mean): 542 ng/mL
Plasma Concentration ([6]; oral 1 mg/kg, 24.00 h, individual rats): 365 ng/mL and 309 ng/mL and 390 ng/mL
Plasma Concentration ([6]; oral 1 mg/kg, 24.00 h, mean): 355 ng/mL
Plasma Concentration ([6]; oral 1 mg/kg, 36.00 h, individual rats): 294 ng/mL and 183 ng/mL and 254 ng/mL
Plasma Concentration ([6]; oral 1 mg/kg, 36.00 h, mean): 243 ng/mL
Plasma Concentration ([6]; oral 1 mg/kg, 48.00 h, individual rats): 188 ng/mL and 94 ng/mL and 170 ng/mL
Plasma Concentration ([6]; oral 1 mg/kg, 48.00 h, mean): 151 ng/mL
Plasma Concentration ([6]; oral 1 mg/kg, 72.00 h, individual rats): 82.4 ng/mL and 58.1 ng/mL and 31.5 ng/mL
Plasma Concentration ([6]; oral 1 mg/kg, 72.00 h, mean): 57 ng/mL
Plasma Concentration ([6]; oral 1 mg/kg, 96.00 h, individual rats): 32.0 ng/mL and 5.1 ng/mL and 28.5 ng/mL
Plasma Concentration ([6]; oral 1 mg/kg, 96.00 h, mean): 21.8 ng/mL
Plasma Concentration ([6]; oral 1 mg/kg, 144.00 h, individual rats): 2.9 ng/mL and 4.4 ng/mL
Plasma Concentration ([6]; oral 1 mg/kg, 144.00 h, mean): 3.7 ng/mL
adverse reactions or compound-related side effects ([6]; rats, 7-day sampling period after IV or oral 1 mg/kg): no adverse reactions or compound-related side effects
Apparent t1/2 [6, 11]: 14 h
Blood CL [6, 11]: 0.589 mL/min/kg and 0.808 mL/min/kg
Blood Vss [6, 11]: 0.991 L/kg and 1.19 L/kg
Plasma AUCIV [6, 11]: 23600 ng·h/mL and 17200 ng·h/mL
Plasma CL [6, 11]: 0.707 mL/min/kg and 0.970 mL/min/kg
Plasma Vss [6, 11]: 1.19 L/kg and 1.43 L/kg
Apparent t1/2 ([6]; rats, IV 1 mg/kg, mean (n = 3)): 15 h
Plasma AUCIV ([6]; rats, IV 1 mg/kg, mean (n = 3)): 20600 ng·h/mL
time for which measurable plasma concentrations were observed ([6]; rats, IV and oral 1 mg/kg): up to 6 days
Apparent t1/2 [6, 12]: 13 h and 19 h
BA [6, 12]: 113% and 85.5% and 99.2%
Plasma AUCoral [6, 12]: 17600 ng·h/mL
Plasma Cmax [6, 12]: 559 ng/mL and 543 ng/mL
Tmax [6, 12]: 1.0 h and 7.0 h and 12 h
Apparent t1/2 ([6]; rats, PO 1 mg/kg, mean (n = 3)): 16 h
Plasma Cmax ([6]; rats, PO 1 mg/kg, mean (n = 3)): 572 ng/mL
B:P [7]: 1.2
CLint [8]: <1.8 μL/min/10^6
IC50 [9]: > 20 µM
ED50 ([10]; adult stage, read-out: S. mansoni ED50, adult): 20 mg/kg
ED50 ([10]; juvenile stage, read-out: S. mansoni ED50, juvenile): 23 mg/kg
